Assay results published in patent US8716242B2, “β-hairpin peptidomimetics” (priority 2009, dated 2014).
Numbered stars: 1 amine (or outer) side, 2 acyl side, 3 side chain; on linkers, the order of the positions; unused ones are H or OH. Bridge positions count the residues as written; N and C are the ends. Square brackets hold non-standard residues; d marks the D form. Side chains are listed from the residue outwards. Peptide text beside a SMILES is read from it. * marks the point of attachment. γGlu = O=C(O)[C@H](CCC(=O)[*:2])N[*:1]; Palmitoyl = CCCCCCCCCCCCCCCC(=O)*; Myristoyl = CCCCCCCCCCCCCC(=O)*; Lauroyl = CCCCCCCCCCCC(=O)*; Dab = NCC[C@H](N)C(=O)O

Columns and labels:
[1] = Plasma stability in human plasma; type: in vitro ADME; settings: human plasma, 37° C.; for remaining at 24 h, 10 μM: 1440 min, read-out: human pl. cpd left at 1440 min
Summary of the method: (§1)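 Peptides (1 mM DMSO/H2O stock) were spiked into human or mouse plasma in triplicate and incubated at 37 °C, sampling from 0 to 1440 min. Samples were quenched in formic acid/acetonitrile and analysed by LC/MS MRM. Remaining percent of t=0 was calculated and T1/2 derived by trend fitting.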

[2] = Cytotoxicity, MTT reduction assay, COS-7 cells; type: cell-based; settings: African green monkey, COS-7 cells (CRL-1651), 12.5-50 μM
Summary of the method: (§2)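 HELA (4000/well) and COS-7 (3400/well) cells were grown 24 h, then exposed 48 h at 37° C to peptides at 12.5, 25 and 50 μM in triplicate. MTT reduction read at 595 nm; growth % relative to time-zero, and GI50 interpolated by trend line.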

[3] = system: human red blood cells (hRBC); assay: Hemolysis of human red blood cells; type: cell-based; settings: 20% hRBC, 1 h, 37° C.
Summary of the method: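 Washed fresh human erythrocytes (20% v/v, ~0.9×10^9 cells/mL final) incubated with compound at 100 μM for 1 h at 37 °C with shaking. Supernatant OD540 read; % hemolysis expressed relative to 2.5% Triton X-100 lysis (100%), with PBS/0.001% acetic acid as 0%.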

[4] = Plasma stability in mouse plasma; type: in vitro ADME; settings: mouse plasma, 37° C.; for remaining at 24 h, 10 μM: 1440 min, read-out: mouse pl. cpd left at 1440 min
Summary of the method: as §1

[5] = Cytotoxicity, MTT reduction assay, HELA cells; type: cell-based; settings: human, HELA cells (Acc57), 12.5-50 μM
Summary of the method: as §2

Compound	remaining at 24 h, 10 μM [1] [%]	human pl. T1/2 ([1]; up to 1440 min) [h]	GI50 at 48 h [2] [µM]	Hemolysis at 100 μM [3] [%]	remaining at 24 h, 10 μM [4] [%]	half-life at 10 μM ([4]; up to 1440 min, read-out: mouse pl. T1/2) [h]	GI50 at 48 h [5] [µM]	mouse pl. T1/2 ([4]; up to 1440 min) [h]	half-life at 10 μM ([1]; up to 1440 min, read-out: human pl. T1/2) [h]
CCCCCCCCCCCC(=O)NCCCC[C@@H]1NC(=O)[C@H](Cc2ccc(O)cc2)NC(=O)[C@@H]2CSSC[C@H](NC(=O)[C@H](C)NC(=O)[C@H](Cc3c[nH]cn3)NC(=O)[C@H](Cc3ccc(O)cc3)NC(=O)[C@@H]3CCCN3C(=O)[C@H]3CCCN3C(=O)[C@H](CCCCN)NC1=O)C(=O)N[C@@H](CCCNC(=N)N)C(=O)N[C@@H](C)C(=O)N1CCC[C@@H]1C(=O)N[C@@H](CCN)C(=O)N[C@@H](CCCNC(=N)N)C(=O)N[C@@H](Cc1ccc(O)cc1)C(=O)N2 [Ex. 17] (cyclo(YHACRA[dP][Dab]RYCYK(Lauroyl)K[dP]P); disulfide 4-11)	65	24	> 50	4.3	59	19.5	> 44		
CCCCCCCCCCCCCCCC(=O)NCCCC[C@@H]1NC(=O)[C@H](Cc2ccc(O)cc2)NC(=O)[C@@H]2CSSC[C@H](NC(=O)[C@H](Cc3ccc(O)cc3)NC(=O)[C@H](Cc3c[nH]cn3)NC(=O)[C@H](Cc3ccc(O)cc3)NC(=O)[C@@H]3CCCN3C(=O)[C@H]3CCCN3C(=O)[C@H](CCCCN)NC1=O)C(=O)N[C@@H](CO)C(=O)N[C@@H](C)C(=O)N1CCC[C@@H]1C(=O)N[C@@H](CCN)C(=O)N[C@@H](CCCNC(=N)N)C(=O)N[C@@H](Cc1ccc(O)cc1)C(=O)N2 [Ex. 20] (cyclo(YHYCSA[dP][Dab]RYCYK(Palmitoyl)K[dP]P); disulfide 4-11)	54	24	> 50	9.1	83		> 31	24	
CCCCCCCCCCCC(=O)N[C@@H](CCC(=O)NCCCC[C@@H]1NC(=O)[C@H](Cc2ccc(O)cc2)NC(=O)[C@@H]2CSSC[C@H](NC(=O)[C@H](Cc3ccc(O)cc3)NC(=O)[C@H](Cc3c[nH]cn3)NC(=O)[C@H](Cc3ccc(O)cc3)NC(=O)[C@@H]3CCCN3C(=O)[C@H]3CCCN3C(=O)[C@H](CCCCN)NC1=O)C(=O)N[C@@H](CO)C(=O)N[C@@H](C)C(=O)N1CCC[C@@H]1C(=O)N[C@@H](CCN)C(=O)N[C@@H](CCCNC(=N)N)C(=O)N[C@@H](Cc1ccc(O)cc1)C(=O)N2)C(=O)O [Ex. 25] (cyclo(YHYCSA[dP][Dab]RYCYK([γGlu-Lauroyl])K[dP]P); disulfide 4-11)	78	24	> 50	1.0	74		> 43	24	
CCCCCCCCCCCC(=O)N[C@@H](CCC(=O)NCCCC[C@@H]1NC(=O)[C@H](Cc2ccc(O)cc2)NC(=O)[C@@H]2CSSC[C@H](NC(=O)[C@H](C)NC(=O)[C@H](Cc3c[nH]cn3)NC(=O)[C@H](Cc3ccc(O)cc3)NC(=O)[C@@H]3CCCN3C(=O)[C@H]3CCCN3C(=O)[C@H](CCCCN)NC1=O)C(=O)N[C@@H](CCCNC(=N)N)C(=O)N[C@@H](C)C(=O)N1CCC[C@@H]1C(=O)N[C@@H](CCN)C(=O)N[C@@H](CCCNC(=N)N)C(=O)N[C@@H](Cc1ccc(O)cc1)C(=O)N2)C(=O)O [Ex. 26] (cyclo(YHACRA[dP][Dab]RYCYK([γGlu-Lauroyl])K[dP]P); disulfide 4-11)	82	24	> 50	1.2	65		> 50	24	
CCCCCCCCCCCCCC(=O)N[C@@H](CCC(=O)NCCCC[C@@H]1NC(=O)[C@H](Cc2ccc(O)cc2)NC(=O)[C@@H]2CSSC[C@H](NC(=O)[C@H](Cc3ccc(O)cc3)NC(=O)[C@H](Cc3c[nH]cn3)NC(=O)[C@H](Cc3ccc(O)cc3)NC(=O)[C@@H]3CCCN3C(=O)[C@H]3CCCN3C(=O)[C@H](CCCCN)NC1=O)C(=O)N[C@@H](CO)C(=O)N[C@@H](C)C(=O)N1CCC[C@@H]1C(=O)N[C@@H](CCN)C(=O)N[C@@H](CCCNC(=N)N)C(=O)N[C@@H](Cc1ccc(O)cc1)C(=O)N2)C(=O)O [Ex. 28] (cyclo(YHYCSA[dP][Dab]RYCYK([γGlu-Myristoyl])K[dP]P); disulfide 4-11)	80		> 50	1.9	78		> 39	24	19.1
CCCCCCCCCCCCCCCC(=O)N[C@@H](CCC(=O)NCCCC[C@@H]1NC(=O)[C@H](Cc2ccc(O)cc2)NC(=O)[C@@H]2CSSC[C@H](NC(=O)[C@H](Cc3ccc(O)cc3)NC(=O)[C@H](Cc3c[nH]cn3)NC(=O)[C@H](Cc3ccc(O)cc3)NC(=O)[C@@H]3CCCN3C(=O)[C@H]3CCCN3C(=O)[C@H](CCCCN)NC1=O)C(=O)N[C@@H](CO)C(=O)N[C@@H](C)C(=O)N1CCC[C@@H]1C(=O)N[C@@H](CCN)C(=O)N[C@@H](CCCNC(=N)N)C(=O)N[C@@H](Cc1ccc(O)cc1)C(=O)N2)C(=O)O [Ex. 29] (cyclo(YHYCSA[dP][Dab]RYCYK([γGlu-Palmitoyl])K[dP]P); disulfide 4-11)	74	24	> 50	5.4	53		> 47	24	
